Source: ChEMBL document CHEMBL6127057, “Design and synthesis of Thieno[3, 2-b]pyridinone derivatives exhibiting potent activities against Mycobacterium tuberculosis in vivo by targeting Enoyl-ACP reductase” (Eur J Med Chem, 2024)
Values after ≈ are worked out from the molar mass of the structure shown. Active and inactive are the calls of the source. No cut-off for these calls is given here.

Columns and labels:
[1] = system: Mycobacterium tuberculosis; test: Antimycobacterial activity against marker-free avirulent autoluminescent Mycobacterium tuberculosis H37Ra assessed as inhibition of relative light unit relative to control; type: functional
Cryptococcus neoformans = test: Antifungal activity against Cryptococcus neoformans assessed as fungal growth inhibition incubated for 72 hrs; type: functional
Candida albicans = test: Antifungal activity against Candida albicans assessed as fungal growth inhibition incubated for 48 hrs; type: functional
Escherichia coli = test: Antibacterial activity against Escherichia coli assessed as bacterial growth inhibition incubated for 24 hrs; type: functional
Staphylococcus aureus = test: Antibacterial activity against Staphylococcus aureus assessed as bacterial growth inhibition incubated for 24 hrs; type: functional
[2] = system: Mycobacterium tuberculosis; test: Antimycobacterial activity against Mycobacterium tuberculosis UAlRv infection model using mouse RAW264.7 cells assessed as inhibition of bacterial growth incubated for 72 hrs; type: functional
[3] = biological target: T1, Enoyl-[acyl-carrier-protein] reductase [NADH] (Mycobacterium tuberculosis) (UniProt P9WGR1); test: Inhibition of C-terminal his-tagged Mycobacterium tuberculosis InhA extracted from Escherichia coli BL21(DE3) cells using trans-2-dodecenoyl-coenzyme A as substrate at 25 microM by UV based analysis
T1 sequence (whole entry): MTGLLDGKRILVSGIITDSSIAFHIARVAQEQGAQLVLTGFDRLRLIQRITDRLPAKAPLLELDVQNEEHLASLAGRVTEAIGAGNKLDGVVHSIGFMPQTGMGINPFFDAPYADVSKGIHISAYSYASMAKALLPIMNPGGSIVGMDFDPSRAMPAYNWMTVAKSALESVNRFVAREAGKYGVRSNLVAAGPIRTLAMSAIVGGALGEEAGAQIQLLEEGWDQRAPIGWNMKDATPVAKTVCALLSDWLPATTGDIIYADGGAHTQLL

L02 = test: Cytotoxicity against human L02 cells incubated for 48 hrs by CCK-8 assay; type: toxicity, cell-based; conditions: l02, 48 h
[4] = system: Mycobacterium tuberculosis; test: Antimycobacterial activity against Mycobacterium tuberculosis H37Rv assessed as inhibition of growth by kill kinetic analysis; type: functional
[5] = system: Mycobacterium tuberculosis; test: Antimycobacterial activity against wild-type Mycobacterium tuberculosis H37Rv incubated for 4 weeks by MABA assay; type: functional; conditions: 672 h
[6] = Toxicity in BALB/c mouse infected with Mycobacterium tuberculosis H37Rv assessed as optimal condition at 300 mg/kg, po administered once daily for 5 days; type: organism-based; conditions: in vivo, 120 h, time 5 day
[7] = AUC (0 to infinity) in male Sprague-Dawley rat at 100 mg/kg, po measured upto 240 hrs by LC/MS/MS analysis; type: ADME, organism-based; conditions: in vivo
[8] = system: Mycolicibacterium smegmatis; test: Selectivity ratio of MIC for recombinant Mycobacterium smegmatis transfected with pMV261-Mtb InhA to MIC for recombinant Mycobacterium smegmatis transfected with pMV261; type: functional
[9] = system: Mycolicibacterium smegmatis; test: Antimycobacterial activity against recombinant Mycobacterium smegmatis transfected with pMV261-Mtb InhA assessed as inhibition of bacterial growth at 0.25 to 64 microg/ml incubated for 3 days; type: functional; conditions: 72 h, dose 0.25-64 µg/ml, time 3 day
[10] = system: Mycobacterium tuberculosis; test: Antimycobacterial activity against Mycobacterium tuberculosis H37Rv infected in female BALB/c mouse assessed as reduction in relative light unit in lung, po administered once daily for 5 days; type: functional, organism-based; conditions: dose 30-300 mg/kg, time 5.0 day
[11] = system: Mycolicibacterium smegmatis; test: Antimycobacterial activity against recombinant Mycobacterium smegmatis transfected with pMV261 assessed as inhibition of bacterial growth at 0.25 to 64 microg/ml incubated for 3 days; type: functional; conditions: 72 h, dose 0.25-64 µg/ml, time 3 day
[12] = system: Mycobacterium tuberculosis; test: Antimycobacterial activity against Mycobacterium tuberculosis H37Rv infected in female BALB/c mouse assessed as reduction in relative light unit in lung at 100 mg/kg, po in presence of Rifampicin administered once daily for 5 days; type: functional; conditions: time 5 day
[13] = system: Mycobacterium tuberculosis; test: Antimycobacterial activity against Mycobacterium tuberculosis H37Rv infected in female BALB/c mouse assessed as reduction in relative light unit in lung at 30 mg/kg, po in presence of Rifampicin administered once daily for 5 days; type: functional; conditions: time 5 day
[14] = Cmax in male Sprague-Dawley rat at 100 mg/kg, po measured upto 240 hrs by LC/MS/MS analysis; type: ADME, organism-based; conditions: in vivo
[15] = Half life in male Sprague-Dawley rat at 1 mg/kg, iv measured upto 240 hrs by LC/MS/MS analysis; type: ADME, organism-based; conditions: in vivo
[16] = system: Mycobacterium tuberculosis; test: Antimycobacterial activity against Mycobacterium tuberculosis H37Rv infected in female BALB/c mouse assessed as reduction in relative light unit in spleen at 300 mg/kg, po administered once daily for 5 days; type: functional; conditions: time 5 day
[17] = Tmax in male Sprague-Dawley rat at 100 mg/kg, po measured upto 240 hrs by LC/MS/MS analysis; type: ADME, organism-based; conditions: in vivo
[18] = AUC (0 to infinity) in male Sprague-Dawley rat at 1 mg/kg, iv measured upto 240 hrs by LC/MS/MS analysis; type: ADME, organism-based; conditions: in vivo
[19] = Oral bioavailability in male Sprague-Dawley rat at 100 mg/kg measured upto 240 hrs by LC/MS/MS analysis; type: ADME, organism-based; conditions: in vivo
[20] = Half life in male Sprague-Dawley rat at 100 mg/kg, po measured upto 240 hrs by LC/MS/MS analysis; type: ADME, organism-based; conditions: in vivo
[21] = system: Mycobacterium tuberculosis; test: Antimycobacterial activity against Mycobacterium tuberculosis H37Rv infected in female BALB/c mouse assessed as reduction in relative light unit in lung at 300 mg/kg, po administered once daily for 5 days; type: functional; conditions: time 5 day
[22] = system: Mycobacterium tuberculosis; test: Antimycobacterial activity against Mycobacterium tuberculosis H37Rv infected in female BALB/c mouse assessed as reduction in relative light unit in lung at 100 mg/kg, po administered once daily for 5 days; type: functional; conditions: time 5 day

## COc1ccc(-c2c(O)c3scc(Br)c3[nH]c2=O)cc1
[1]
  MIC90: 16 µg/mL (≈ 45.4 µM)

## CC(=O)Oc1c(-c2ccccc2)c(=O)n(C(C)=O)c2c(Br)csc12
[1]
  MIC90: 4 µg/mL (≈ 9.85 µM)

## O=c1[nH]c2c(Br)csc2c(O)c1-c1ccc(Cl)cc1
[1]
  MIC90: > 64 µg/mL

## O=c1[nH]c2c(Br)csc2c(O)c1-c1ccc2ccccc2c1
[1]
  MIC90: 16 µg/mL (≈ 43 µM)

## O=c1[nH]c2c(Br)csc2c(O)c1-c1ccccc1Cl
[1]
  MIC90: 1 µg/mL (≈ 2.8 µM)

## N#Cc1ccc(-c2c(O)c3scc(Br)c3[nH]c2=O)cc1
[1]
  MIC90: 32 µg/mL (≈ 92.2 µM)

## O=c1[nH]c2c(Br)csc2c(O)c1-c1cccs1
[1]
  MIC90: 4 µg/mL (≈ 12.2 µM)

## O=c1[nH]c2c(Br)csc2c(O)c1-c1cccc(OC(F)(F)F)c1
[1]
  MIC90: > 64 µg/mL

## O=c1[nH]c2c(Br)csc2c(O)c1-c1ccccc1F
Cryptococcus neoformans
  MIC80: > 64 µg/mL
Candida albicans
  MIC80: > 64 µg/mL
Escherichia coli
  MIC99: > 64 µg/mL
Staphylococcus aureus
  MIC99: > 64 µg/mL
[1]
  MIC90: 0.5 µg/mL (≈ 1.47 µM)

## O=c1[nH]c2c(Br)csc2c(O)c1-c1cccc(Cl)c1
[2]
  MIC90: 1 µg/mL (≈ 2.8 µM)
[3]
  inhibition: Active
L02
  Activity: Toxic
Escherichia coli
  MIC99: > 64 µg/mL
Staphylococcus aureus
  MIC99: > 64 µg/mL
[1]
  MIC90: 0.5 µg/mL (≈ 1.4 µM)

## O=c1[nH]c2c(Br)csc2c(O)c1-c1cccc(Oc2ccccc2)c1
[1]
  MIC90: 32 µg/mL (≈ 77.2 µM)

## CC1(C)CCC(Cc2cc(O)c(-c3ccccc3)c(=O)[nH]2)CC1
[4]
  MIC50: 0.05 µM (≈ 0.0156 µg/mL)

## O=c1[nH]c2c(Br)csc2c(O)c1-c1ccc([N+](=O)[O-])cc1
[1]
  MIC90: 32 µg/mL (≈ 87.2 µM)

## COc1cccc(-c2c(O)c3scc(Br)c3[nH]c2=O)c1
[1]
  MIC90: 8 µg/mL (≈ 22.7 µM)

## O=c1[nH]c2c(Br)csc2c(O)c1-c1ccc(Br)cc1
[1]
  MIC90: 16 µg/mL (≈ 39.9 µM)

## O=c1[nH]c2c(Br)csc2c(O)c1-c1ccco1
[1]
  MIC90: 8 µg/mL (≈ 25.6 µM)

## O=c1[nH]c2c(Br)csc2c(O)c1-c1ccccc1
Escherichia coli
  MIC99: > 64 µg/mL
Staphylococcus aureus
  MIC99: > 64 µg/mL
[1]
  MIC90: 0.5 µg/mL (≈ 1.55 µM)

## O=c1[nH]c2c(Br)csc2c(O)c1-c1ccc(F)cc1
[1]
  MIC90: 2 µg/mL (≈ 5.88 µM)

## CO[C@H]1/C=C/O[C@@]2(C)Oc3c(C)c(O)c4c(O)c(c(/C=N/N5CCN(C)CC5)c(O)c4c3C2=O)NC(=O)/C(C)=C\C=C\[C@H](C)[C@H](O)[C@@H](C)[C@@H](O)[C@@H](C)[C@H](OC(C)=O)[C@@H]1C [RIFAMPIN]
[5]
  MIC: 0.125 µg/mL (≈ 0.152 µM)
[1]
  MIC90: 0.25 µg/mL (≈ 0.304 µM)

## O=c1[nH]c2c(Br)csc2c(O)c1-c1cccc(Br)c1
[1]
  MIC90: 16 µg/mL (≈ 39.9 µM)

## CC1(C)S[C@@H]2[C@H](NC(=O)[C@H](N)c3ccc(O)cc3)C(=O)N2[C@H]1C(=O)O [AMOXICILLIN]
Escherichia coli
  MIC99: 0.05 µg/mL (≈ 0.137 µM)
Staphylococcus aureus
  MIC99: 0.5 µg/mL (≈ 1.37 µM)

## Cc1ccc(-c2c(O)c3scc(Br)c3[nH]c2=O)cc1
[1]
  MIC90: 32 µg/mL (≈ 95.2 µM)

## O=c1[nH]c2c(Br)csc2c(O)c1-c1cccc(F)c1
Cryptococcus neoformans
  MIC80: > 64 µg/mL
Candida albicans
  MIC80: > 64 µg/mL
Escherichia coli
  MIC99: > 64 µg/mL
Staphylococcus aureus
  MIC99: > 64 µg/mL
[1]
  MIC90: 0.5 µg/mL (≈ 1.47 µM)

## C[C@@H]1[C@H](O)[C@@H](C)/C=C/C=C/C=C/C=C/C=C/C=C/C=C/[C@H](O[C@@H]2O[C@H](C)[C@@H](O)[C@H](N)[C@@H]2O)C[C@@H]2O[C@](O)(C[C@@H](O)C[C@@H](O)[C@H](O)CC[C@@H](O)C[C@@H](O)CC(=O)O[C@H]1C)C[C@H](O)[C@H]2C(=O)O [AMPHOTERICIN B]
Cryptococcus neoformans
  MIC80: 0.5 µg/mL (≈ 0.541 µM)
Candida albicans
  MIC80: 0.125 µg/mL (≈ 0.135 µM)

## Cc1ccccc1-c1c(O)c2scc(Br)c2[nH]c1=O
Cryptococcus neoformans
  MIC80: > 64 µg/mL
Candida albicans
  MIC80: > 64 µg/mL
Escherichia coli
  MIC99: > 64 µg/mL
Staphylococcus aureus
  MIC99: > 64 µg/mL
[1]
  MIC90: 0.5 µg/mL (≈ 1.49 µM)

## Cc1ccc(C)c(-c2c(O)c3scc(Br)c3[nH]c2=O)c1
[1]
  MIC90: 32 µg/mL (≈ 91.4 µM)

## O=c1[nH]c2c(Br)csc2c(O)c1-c1cccc([N+](=O)[O-])c1
[1]
  MIC90: > 64 µg/mL

## Cc1csc2c(O)c(-c3ccccc3)c(=O)[nH]c12
[1]
  MIC90: 4 µg/mL (≈ 15.5 µM)

## O=c1[nH]c2c(Br)csc2c(O)c1-c1ccc(Cl)cc1Cl
[1]
  MIC90: > 64 µg/mL

## O=c1[nH]c2c(Br)csc2c(O)c1-c1ccc(Cl)cc1F
[1]
  MIC90: 16 µg/mL (≈ 42.7 µM)

## Cc1cccc(-c2c(O)c3scc(Br)c3[nH]c2=O)c1
[2]
  MIC90: 1 µg/mL (≈ 2.97 µM)
[6]
  Activity: Non-Toxic
[7]
  AUC: 19700 µM·h
[8]
  Selectivity ratio: 2
[3]
  inhibition: Active
[9]
  MIC: 4 µg/mL
[10]
  Activity: Dose-Dependent Effect
[11]
  MIC: 1 µg/mL
[5]
  MIC: 0.5 µg/mL (≈ 1.49 µM)
[12]
  Activity: 5.31 log10RLU
Cryptococcus neoformans
  MIC80: > 64 µg/mL
L02
  Activity: Toxic
[13]
  Activity: 0.29 log10RLU
Candida albicans
  MIC80: > 64 µg/mL
Escherichia coli
  MIC99: > 64 µg/mL
[14]
  Cmax: 283 µM
[15]
  half-life: 2130 min
Staphylococcus aureus
  MIC99: > 64 µg/mL
[16]
  Activity: 0.37 log10RLU
[17]
  Tmax: 6 h
[18]
  AUC: 1200 µM·h
[1]
  MIC90: 0.5 µg/mL (≈ 1.49 µM)
[19]
  bioavailability: 16.4%
[20]
  half-life: 2880 min
[21]
  Activity: 0.64 log10RLU
[22]
  Activity: 4.93 log10RLU

## O=c1[nH]c2c(Br)csc2c(O)c1-c1ccc(C(F)(F)F)cc1
[1]
  MIC90: 16 µg/mL (≈ 41 µM)

## N#Cc1cccc(-c2c(O)c3scc(Br)c3[nH]c2=O)c1
[1]
  MIC90: > 64 µg/mL

## NNC(=O)c1ccncc1 [ISONIAZID]
[5]
  MIC: 0.03 µg/mL (≈ 0.219 µM)
[4]
  MIC50: 0.33 µM (≈ 0.0453 µg/mL)

## CC(C)(C)c1ccc(-c2c(O)c3scc(Br)c3[nH]c2=O)cc1
[1]
  MIC90: > 64 µg/mL
